Data as given in US20020115642A1, “Beta-lactam antibiotics” (priority 2000, published 2002).
Values after ≈ are worked out from the molar mass of the structure shown. Where two headings read alike, the source gives them in different places.

Legend:
[1] = tested on: Vancomycin-resistant E. faecalis or E. faecium; assay: Susceptibility testing (MIC, modified NCCLS method); assay type: cell-based, Enterococcus faecalis, Enterococcus faecium; details: VRE (5)
Experimental: (§1) The NCCLS (National Committee for Clinical Laboratory Standards) method to determine MIC's of antimicrobial compounds was modified for high-throughput screening. All stocks of tested compounds were prepared in either water or in dimethylsulfoxide (DMSO), depending on the solubility. […] Briefly 20 2-fold serial dilutions of testing compounds from the highest concentration were made in a 384-well microtiter plate. Each well was inoculated with testing bacteria in broth to a final concentration of approximately 1-1.5×10^6 cells/ml. Bacterial growth was determined by the increase of optical density at 600 nm using a microplate reader (Tecan SpectraFluor Plus).

[2] = tested on: E. coli/TEM-1; assay: as above; assay type: cell-based, Escherichia coli; details: for MIC: Escherichia coli
Summary of the method: (§2)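 Growth inhibition was scored by optical density increase at 600 nm. Bacteria in broth were added at roughly 1-1.5×10^6 cells/ml to 20 twofold serial dilutions of compound, prepared from water or DMSO stocks. The NCCLS MIC procedure was modified for high throughput.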

[3] = tested on: E. coli N; assay: as above; assay type: cell-based, Escherichia coli; details: Escherichia coli, E. coli, BLA neg.
Summary of the method: as §2

[4] = tested on: S. aureus clinical isolates; assay: MIC by agar dilution, recent clinical isolates (UCSD Medical Center); assay type: cell-based, Staphylococcus aureus; details: MRSA (17)
[5] = tested on: E. aerogenes; assay: Susceptibility testing (MIC, modified NCCLS method); assay type: cell-based, Enterobacter aerogenes; details: E. aerogenes (5)
Summary of the method: as §2

[6] = tested on: P. aeruginosa; assay: as above; assay type: cell-based, Pseudomonas aeruginosa
Summary of the method: as §2

[7] = tested on: S. aureus (ATCC#700260); assay: Bactericidal assay; assay type: cell-based; details: 0.6 μg/ml
Experimental: Compound (9) was added in log-phase S. aureus (ATCC#700260) and incubated at 37° C. The final concentration of cells at hour 0 was 1.3×10^6 cells/ml, and Compound (9) was 0.6 μg/mL. […]
Overnight broth cultures of S. aureus (ATCC#700260) were diluted 100 times into liquid medium and allowed to grow to exponential phase (OD600=0.6). Next the bacteria were diluted into fresh medium to give a working concentration of 10^6 cells/ml. Compound (9) was added to a final concentration of 0.6 μg/ml, and the suspension was incubated at 37° C. […] The samples were diluted at 10^−3×, 10^−4× or 10^−5× fold, and plated onto agar plates. The plates were incubated for 24 hours at 37° C. to obtain a viable cell count.

[8] = tested on: E. faecium; assay: Susceptibility testing (MIC, modified NCCLS method); assay type: cell-based, Enterococcus faecium; details: Enterococcus faecium; E. faecium (6); read-out: GM* MIC (geometric mean)
Experimental: as §1

[9] = target: T1, TEM-1 β-lactamase (Escherichia coli, UniProt P62593); assay type: biochemical; details: 20 minutes, […] TEM-1, 4 μM solution of Compound (9)
T1 construct: His tag (N); made in house; host or cells: Escherichia coli BL21(DE3)
T1 sequence (P62593 24-286 limits assumed): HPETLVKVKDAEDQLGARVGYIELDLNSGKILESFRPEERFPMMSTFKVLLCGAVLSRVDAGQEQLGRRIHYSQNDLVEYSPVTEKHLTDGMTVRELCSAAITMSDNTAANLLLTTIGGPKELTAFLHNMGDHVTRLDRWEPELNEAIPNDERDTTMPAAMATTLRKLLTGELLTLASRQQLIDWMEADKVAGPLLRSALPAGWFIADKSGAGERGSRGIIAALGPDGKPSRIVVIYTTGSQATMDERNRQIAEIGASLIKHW
Experimental: Assays were conducted at 37° C. in 100 mM potassium phosphate buffer pH 7.2 with 1 mM EDTA and 0.5 μg/ml TEM-1 β-lactamase. […] Hydrolysis product (triclosan) was separated from Compound (9) by use of an HP1100 series HPLC equipped with an Alltech Adsorbosphere HS(C18)5u 150 mm×4.6 mm column. The mobile phase was isocratic containing 55% acetonitrile and 0.1% TFA producing retention times of 20.4 minutes and 24.1 minutes for triclosan and Compound (9), respectively. Quantitation of triclosan was based on the A260 integrated peak area as compared to triclosan standards.
A typical TEM-1 β-lactamase assay is conducted at 37° C. in 1.4 ml of 100 mM potassium phosphate pH 7.2, 1 mM; ethylenediamine tetraacetic acid (EDTA) and 25 nM TEM-1 β-lactamase. A test compound is assayed at several concentrations, for example at 5 and 20 μM. […] Substrates and products are separated and quantitated via HPLC (described below). […]
Kinetic parameters of test compounds (kcat and Km) are determined from a simultaneous progress curve analysis of substrate consumption and product formation (when both are observable) as fit to the equations: […]
Hydrolysis product (triclosan) was separated from Compound (9) by use of an HP1100 series HPLC equipped with an Alltech Adsorbosphere HS(C18)5μ150 mm×4.6 mm column. […] Quantitation of triclosan was based on the A260 integrated peak area as compared to triclosan standards.

[10] = tested on: E. coli/TEM-1; assay: Detection of triclosan released from Compound (9) in bacteria; assay type: cell-based, Escherichia coli; details: E. coli/TEM-1, after five minutes, 100 μM Compound (9)
Experimental: E coli N and β-lactamase expressing E. coli/TEM-1 were treated with Compound (9) under the condition described in Example 15. Aliquots of culture were sampled at 0, 5 and 15 minutes. The amount of Compound (9) and triclosan were analyzed by HPLC.
Overnight cultures of both wild-type Escherichia coli N and β-lactamase producing strain Escherichia coli/TEM-1 were diluted 100 times with fresh LB medium and cells were grown for 4 hours at 37° C. (shaking at 230 rpm). Cells were then diluted with fresh LB medium containing 100 μM Compound (9) until the OD600 reached 0.2. Aliquots of the culture were sampled at different timed intervals and the cells were pelleted by centrifugation at 10,000×g for 2 minutes at 4° C. The supernatant was removed and combined with 500 μl acetonitrile. The pelleted bacterial cells were resuspended in 100 μl 133 Phosphate Buffer (GIBCO-BRL, pH8.0) and subjected to 3 cycles of freeze-thawing, followed by addition of 500 μl acetonitrile. Both pellet extracts and supernatant were centrifuged at 10,000×g for 2 minutes at 4° C. 550 μl of the resultant supernatant was transferred into a new Eppendorf tube and vacuum-dried. Dried pellets were resuspended in 50 μl H2O and 100 μl acetonitrile, 75 μl of which was analyzed by HPLC.

[11] = assay type: physicochemical; details: 5 h, pH 7.2
Experimental: Assays were conducted at 37° C. in 100 mM potassium phosphate buffer pH 7.2 with 1 mM EDTA and 0.5 μg/ml TEM-1 β-lactamase. Compound (9) catalysis was determined via fixed time incubations followed by acid quenching. Product formation (triclosan) was determined by integrated peak area of A260 nm following HPLC separation. Hydrolysis product (triclosan) was separated from Compound (9) by use of an HP1100 series HPLC equipped with an Alltech Adsorbosphere HS(C18)5u 150 mm×4.6 mm column. The mobile phase was isocratic containing 55% acetonitrile and 0.1% TFA producing retention times of 20.4 minutes and 24.1 minutes for triclosan and Compound (9), respectively. Quantitation of triclosan was based on the A260 integrated peak area as compared to triclosan standards.
A typical TEM-1 β-lactamase assay is conducted at 37° C. in 1.4 ml of 100 mM potassium phosphate pH 7.2, 1 mM; ethylenediamine tetraacetic acid (EDTA) and 25 nM TEM-1 β-lactamase. A test compound is assayed at several concentrations, for example at 5 and 20 μM. At timed intervals oft=0, 15, 30, 60 and 120 minutes, 200 μl of the assay mixture is withdrawn and added to 8 μl of 10% trifluoracetic acid (TFA) in an high pressure liquid chromatography.(HPLC) microvial. Substrates and products are separated and quantitated via HPLC (described below). […]

Compound: O=C(Cc1cccs1)N[C@@H]1C(=O)N2C(C(=O)O)=C(COc3cc(Cl)ccc3Oc3ccc(Cl)cc3Cl)CS[C@H]12 [Compound 9, 3-(2-(2,4-Dichlorophenoxy)-5-chlorophenoxy)methyl-7-(2-thienylacetamido)-3-cephem-4-carboxylic acid]
- MIC ([1]; Enterococcus, read-out: GM* MIC (geometric mean)): 10.3 µg/mL (≈ 16.5 µM)
- MIC range [1]: 8 to 16 µg/mL
- MIC [2]: 0.002 µg/mL (≈ 0.0032 µM)
- MIC ([2]; read-out: MIC, Comp. (9) plus 8 μg/mL SBT): 0.016 µg/mL
- fold more potent against E. coli/TEM-1 compared with E. coli N ([2]; MIC ratio, Table 4): 128 fold
- MIC ([3]; read-out: MIC, Comp. (9) plus 4 μg/mL CLA, plus 4 μg/mL lithium clavulanate): 0.25 µg/mL
- MIC ([3]; drug alone, read-out: MIC): 0.25 µg/mL (≈ 0.399 µM)
- MIC ([3]; plus 8 μg/mL sulbactam, read-out: MIC, Comp. (9) plus 8 μg/mL SBT): 0.13 µg/mL
- MIC range [4]: 0.08 to 0.6 µg/mL
- MIC50 ([4]; Staphylococcus aureus): 0.08 µg/mL (≈ 0.128 µM)
- MIC90 ([4]; Staphylococcus aureus): 0.3 µg/mL (≈ 0.479 µM)
- MIC range [5]: 0.5 to 8 µg/mL
- MIC ([5]; Klebsiella aerogenes, read-out: GM* MIC (geometric mean)): 3.36 µg/mL (≈ 5.37 µM)
- activity against P. aeruginosa [6]: no activity
- MIC range ([6]; P. aeruginosa (7)): >15.6 µg/mL
- MIC ([6]; Pseudomonas aeruginosa, P. aeruginosa (7), read-out: GM* MIC (geometric mean)): > 15.6 µg/mL
- decrease of the number of viable cells ([7]; 6 hours incubation): 100 fold
- decrease of the number of viable cells compared with time 0 ([7]; 24 hour incubation): 10,000 fold
- MIC [8]: > 7 µg/mL
- converted to triclosan [9]: ~90%
- Compound (9) hydrolyzed producing an equimolar amount of triclosan [10]: approximately 80%
- stability in TEM-1 blank experiment [11]: stable up to 5 hours
